Measurements from article PMC6158189, “A pharmacological probe identifies cystathionine β-synthase as a new negative regulator for ferroptosis” (Cell Death & Disease, 2018).

Experiments:
[1] = molecular target: T1, hCBS-FL wild type (293T-CBS WT) (Homo sapiens, UniProt P35520); experiment: H2S in HEK293T cells stably expressing hCBS WT (AzMC probe); assay type: cell-based; conditions: 8 h
T1 construct: human CBS or hCSE full-length (CBS-FL or CSE) was subcloned into pGEX-KG, pcDNA3 or pCDH vector; expressed in transfected cells
T1 sequence (P35520 1-551): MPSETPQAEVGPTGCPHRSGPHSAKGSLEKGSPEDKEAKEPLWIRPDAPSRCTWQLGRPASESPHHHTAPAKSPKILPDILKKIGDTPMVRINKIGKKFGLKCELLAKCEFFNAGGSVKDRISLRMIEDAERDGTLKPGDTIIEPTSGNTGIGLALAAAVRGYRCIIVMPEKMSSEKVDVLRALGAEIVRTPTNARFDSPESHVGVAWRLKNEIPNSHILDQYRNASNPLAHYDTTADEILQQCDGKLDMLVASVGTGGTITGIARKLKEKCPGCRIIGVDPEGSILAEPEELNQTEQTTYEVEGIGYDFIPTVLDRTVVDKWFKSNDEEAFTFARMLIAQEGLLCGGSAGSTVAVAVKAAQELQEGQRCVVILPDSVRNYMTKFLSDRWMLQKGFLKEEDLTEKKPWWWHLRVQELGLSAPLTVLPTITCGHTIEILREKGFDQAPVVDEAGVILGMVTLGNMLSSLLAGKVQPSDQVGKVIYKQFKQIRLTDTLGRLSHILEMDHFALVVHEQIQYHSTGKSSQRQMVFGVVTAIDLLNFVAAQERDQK
Experimental: HEK293T cells were transiently transfected with empty vector (EV, i and ii), hCBS-FL (iii and iv) or hCSE (v and vi) plasmids, followed by incubation with DMSO (i–iii and v) or 10 μM CH004 (iv and vi) for 8 h before staining with 50 μM AzMC, a H2S-specific probe (“Materials and Methods” section). For larger fluorescent and bright-field images, please see Supplementary Figure 4. The expression levels of hCBS or hCSE in HEK293T cells after transient transfections were determined by western blotting using an anti-CBS antibody (3E1, 1:2000; Abnova) or anti-CSE antibody (1:500, GeneTex). The densities of protein bands for hCBS or hCSE in the blots were quantified with the ImageJ software (National Institutes of Health, Bethesda, MD, USA) and expressed as ratios of respective control (EV group). All immunoblots are representative of at least two independent experiments using GAPDH as the loading control. The fluorescent images of the H2S (blue) were accordingly quantified (“Materials and Methods” section) with ImageJ. […] The DMSO groups of the controls (CTR), which are expressing of hCBS or hCSE, were normalized to 100% and the levels of H2S in CH004-treated or EV group are shown as relative percentages. c, d CH004 dose-dependently suppresses the activity of hCBS WT without affecting the activity of CH004-insensitive mutant. HEK293T cells stably expressing EV (i and ii), hCBS-FL wild type (293T-CBS WT; iii–v) or CBS-FL mutant (293T-CBS Q222A, vi–viii) were treated with DMSO (i–iii and vi), 5 μM CH004 (iv, vii) or 10 μM CH004 (v, viii) for 8 h before staining with the AzMC. For larger fluorescent and bright-field images, please see Supplementary Figures 5–6. […] The DMSO groups of the controls (CTR), which are expressing of hCBS-FL wt or Q222A mutant, were normalized to 100% and the levels of H2S in CH004-treated or EV group are shown as relative percentages. A representative fluorescence image from three independent experiments is shown. Means ± SDS (n = 3). Statistical analyses were performed on the raw data for each group by one-way (b) or two-way (d) ANOVA with Bonferroni post-tests. ***p < 0.001. Bars, 50 μm
H2S levels in living cells were detected using a H2S-specific fluorescent probe according to a protocol described previously[31],[55]. To measure H2S in transiently transfected HEK293T cells, the cells were seeded on poly-D-Lys-coated coverslips (Thermo Scientific, Waltham, MA, USA) in 12-well plates at a density of ~ 1 × 10^5 cells per well, and hCBS or hCSE plasmids were transiently transfected by X-tremeGENE HP DNA Transfection Reagent according to the manufacturer’s protocol (Roche, Basel, Switzerland). […] After incubation with 50 μM AzMC at 37 °C for 30 min, the cells were washed 4 times with PBS, and the fluorescent images were recorded with excitation by 405 nm laser by using a A1Si (Nikon) confocal microscope. The intensity of the blue fluorescent signals, indicating the amount of H2S, was quantified by ImageJ software (NIH, Bethesda, ML). The H2S signal was then corrected for the background signal detected in HEK293T cells transiently or stably expressing of empty vector (HEK293T-EV) and normalized by the corresponding cell-occupying area and compared with the control (DMSO group, 100%). Similarly, the H2S signal in HepG2 cells was quantified by AzMC staining, corrected for the background signal outside the cells, normalized by the cell area and expressed as percentages of DMSO control (100%). […]

[2] = molecular target: T2, endogenous hCBS in HepG2 cells (Homo sapiens, UniProt P35520); experiment: endogenous H2S in HepG2 cells (AzMC probe); assay type: cell-based; conditions: 8 h, HepG2
T2 construct: effects of CH004 on the activity of endogenous CBS by incubating with HepG2; endogenous in cells; host or cells: HepG2
T2 sequence (P35520 1-551): T1 sequence (P35520 1-551)
Experimental: Fig. 3 The effect of CH004 on the activity of endogenous hCBS in cells. a CH004 dose-dependently elevates the levels of Hcys in HepG2 and HEK293T cells. HepG2 cells or HEK293T cells were incubated with indicated CH004 or DMSO (control) for 12 h. The amount of total Hcys in cells was measured by ELISA using Axis® Homocysteine EIA kit (IBL, AX51301) (“Materials and Methods” section). […] HepG2 cells were treated with indicated DMSO, CH004 or HA for 8 h before the staining with AzMC probe. The amount of the H2S (blue) was quantified and is shown in (c). Bars, 50 μm. Control (CTR), DMSO group (100%). A representative fluorescence image from three independent experiments is shown. Means ± SDS (n = 3). d CH004 elevates Hcys in the peripheral blood of rats. The total Hcys of the blood samples collected from the anesthetized rats at the 75 min time point (Materials and Methods) were quantified by ELISA (see above). Means ± SDS (n = 6).
H2S levels in living cells were detected using a H2S-specific fluorescent probe according to a protocol described previously[31],[55]. To measure H2S in transiently transfected HEK293T cells, the cells were seeded on poly-D-Lys-coated coverslips (Thermo Scientific, Waltham, MA, USA) in 12-well plates at a density of ~ 1 × 10^5 cells per well, and hCBS or hCSE plasmids were transiently transfected by X-tremeGENE HP DNA Transfection Reagent according to the manufacturer’s protocol (Roche, Basel, Switzerland). After 24 h, the transfected cells were treated with DMSO or inhibitors for another 8 h, followed by staining with 7-azide-4-methylcoumarin (AzMC; Sigma-Aldrich). Similarly, HEK293T cells stably expressing CBS WT, Q222A mutant or EV were seeded on poly-D-Lys-coated coverslips in 12-well plates for one day before treatment with DMSO or inhibitors for 8 h. After incubation with 50 μM AzMC at 37 °C for 30 min, the cells were washed 4 times with PBS, and the fluorescent images were recorded with excitation by 405 nm laser by using a A1Si (Nikon) confocal microscope. The intensity of the blue fluorescent signals, indicating the amount of H2S, was quantified by ImageJ software (NIH, Bethesda, ML). The H2S signal was then corrected for the background signal detected in HEK293T cells transiently or stably expressing of empty vector (HEK293T-EV) and normalized by the corresponding cell-occupying area and compared with the control (DMSO group, 100%). Similarly, the H2S signal in HepG2 cells was quantified by AzMC staining, corrected for the background signal outside the cells, normalized by the cell area and expressed as percentages of DMSO control (100%).
To elucidate the subcellular localization of H2S, HepG2 cells were seeded on poly-D-Lys-coated coverslips in 12-well plates. After treatment with DMSO or inhibitors for 8 h, cells were sequentially incubated with 200 nM Mito-Tracker® Green and 50 μM AzMC for 30 min at 37 °C in PBS, and then fluorescent images were taken using a confocal microscope.
Figure S9. The effect of AOAA on the level of endogenous H2S in HepG2 cells. […] HepG2 cells were incubated with 0 (DMSO control), 1, 5 or 10 mM AOAA for 8 h before staining with 50 μM AzMC. Upper panels, the overlaid images; middle panels, the corresponding fluorescent images (blue, H2S); the lower panels, the bright-field images. Bars: 50 μm. (B) Quantification of the mean fluorescent density of H2S (blue). The intensity of H2S was accordingly quantified and normalized by correcting for the background signal outside cells. Data was expressed as percentages of the control (DMSO group, 100%). Means ± SDs (n=3). One-way ANOVA with Bonferroni post-tests was used for the analysis. *, p< 0.05; ***, p< 0.001; n.s. no significance. The images are one representative from three independent experiments.

[3] = tested on: H22 mouse liver tumor cells in ICR mice; conditions: 20 mg/kg/day i.v.
Experimental: Fig. 7 CH004 suppresses tumor growth in vivo. a–c CH004 reduces the growth rate of tumors in liver tumor xenograft mice model. Mice bearing liver tumor xenografts were treated with CH004 (10 mg/kg/d), cyclophophamide (CTX, 20 mg/kg/d) or PBS (Vehicle) for 21 days. The tumor volumes were measured every two days during day 6 to day 22 and the data was presented in a (n = 8). […] Mice body weight was measured along with the measurement of tumor volume (n = 8). Means ± SDS. Statistical analyses were performed on the raw data by one-way (c) or two-way ANOVA (a) with Bonferroni post-tests. The significance of the CH004-treated group compared to Vehicle was indicated with $ (a), whereas the comparison of the CTX group to Vehicle was with # (a). $, # or ***p < 0.001
The in vivo effect of CH004 on tumor growth was evaluated in a xenograft mice model of liver cancer. The experiment was independently performed by Jiangsu KeyGEN BioTECH Co. LTD (Jiangsu, China) and followed the standard procedures that were established and approved by the local Animal Care and Use Committee. Briefly, H22 mouse liver tumor cells were intraperitoneal injected into female ICR mice (SLAC Laboratory Animal Co. Ltd, Shanghai, China). 8 days later, mice with distended abdomen were killed, and the ascites was collected, washed and resuspended with PBS. 0.1 ml cell suspension with a density of 1 × 10^7/ml was subcutaneously injected into the right dorsum of ICR female mice (~20 g). The mice bearing H22 tumor cells were then randomized into groups (n = 8) on the following day after the implantation. Then, the mice were injected via a tail vein (i.v.) with PBS, CH004 (10 mg/kg) or cyclophosphamide (CTX, a known anticancer drug; 20 mg/kg) once per day and for 21 days. Tumor sizes were measured every 2 days starting from the day 6 using a caliper, and tumor volume was calculated using the formula V = length × width^2 × π / 6. The body weights of mice were recorded under the same conditions. The mice were sacrificed on day 22, and the tumors were taken out and weighted.

In the case of `NOCC(=O)O` [AOAA, aminooxyacetic acid, reference compound], the “effect on production of H2S” value ([1]; 1 mM, HEK293T stably expressing hCBS) was “cannot suppress”, the “decrease in cellular H2S” value ([1]; 10 mM, HEK293T stably expressing hCBS) was no more than 30% and the H2S production ([1]; 1, 5 or 10 mM, 293T-CBS WT) was “weakly inhibits”. The “effect on production of H2S” value ([2]; 1 mM) was “cannot suppress”, the “decrease in cellular H2S” value ([2]; 10 mM) was no more than 30% and the “production of endogenous H2S” value ([2]; 1, 5 or 10 mM) was “impotently decreases”.
With `O=P1(N(CCCl)CCCl)NCCCO1` (centres unmarked) [CTX, cyclophosphamide, reference compound] the “reduction of tumor volume or weight” value ([3]; 21-day treatment) was “more than half” and the “effect on total body weight” value ([3]; 21 days) was “did not substantially affect”.
